# Assays:
# [1] = AUC (0 to 24 hrs) in cynomolgus monkey at 3 mg/kg, po measured upto 24 hrs; assay type: ADME, organism-based, Macaca fascicularis; set-up: route oral, dose 3 mg/kg, time <=24; conditions: in vivo
# [2] = Cmax in Sprague-Dawley rat at 5 mg/kg, po measured upto 24 hrs by LC-MS/MS analysis; assay type: ADME, organism-based; set-up: route oral, dose 5 mg/kg, time <=24; conditions: in vivo
# [3] = Cmax in Beagle dog at 3 mg/kg, po measured upto 24 hrs; assay type: ADME, organism-based, Canis lupus familiaris; set-up: route oral, dose 3 mg/kg, time <=24; conditions: in vivo
# [4] = Cmax in cynomolgus monkey at 3 mg/kg, po measured upto 24 hrs; assay type: ADME, organism-based, Macaca fascicularis; set-up: route oral, dose 3 mg/kg, time <=24; conditions: in vivo
# [5] = Tmax in Sprague-Dawley rat at 5 mg/kg, po measured upto 24 hrs by LC-MS/MS analysis; assay type: ADME, organism-based; conditions: in vivo
# [6] = Half life in Sprague-Dawley rat at 2.5 mg/kg, po measured upto 24 hrs by LC-MS/MS analysis; assay type: ADME, organism-based; conditions: in vivo
# [7] = Volume of distribution at steady state in cynomolgus monkey at 3 mg/kg, iv measured upto 24 hrs; assay type: ADME, organism-based, Macaca fascicularis; conditions: in vivo, read-out: Vdss
# [8] = Oral bioavailability in CD1 mouse at 5 mg/kg measured upto 24 hrs by LC-MS/MS analysis; assay type: ADME, organism-based; conditions: in vivo
# [9] = Oral bioavailability in Sprague-Dawley rat at 5 mg/kg measured upto 24 hrs by LC-MS/MS analysis; assay type: ADME, organism-based; conditions: in vivo
# [10] = Oral bioavailability in cynomolgus monkey at 3 mg/kg measured upto 24 hrs; assay type: ADME, organism-based, Macaca fascicularis; conditions: in vivo
# [11] = AUC (0 to 24 hrs) in CD1 mouse at 2.5 mg/kg, iv measured upto 24 hrs by LC-MS/MS analysis; assay type: ADME, organism-based; set-up: route intravenous, dose 2.5 mg/kg, time <=24; conditions: in vivo
# [12] = AUC (0 to 24 hrs) in Beagle dog at 3 mg/kg, iv measured upto 24 hrs; assay type: ADME, organism-based, Canis lupus familiaris; set-up: route intravenous, dose 3 mg/kg, time <=24; conditions: in vivo
# Cytochrome P450 2C8 = biological target: T1, Cytochrome P450 2C8 (Homo sapiens, UniProt P10632); assay: Inhibition of CYP2C8 (unknown origin); assay type: ADME
# T1 sequence (P10632 whole entry): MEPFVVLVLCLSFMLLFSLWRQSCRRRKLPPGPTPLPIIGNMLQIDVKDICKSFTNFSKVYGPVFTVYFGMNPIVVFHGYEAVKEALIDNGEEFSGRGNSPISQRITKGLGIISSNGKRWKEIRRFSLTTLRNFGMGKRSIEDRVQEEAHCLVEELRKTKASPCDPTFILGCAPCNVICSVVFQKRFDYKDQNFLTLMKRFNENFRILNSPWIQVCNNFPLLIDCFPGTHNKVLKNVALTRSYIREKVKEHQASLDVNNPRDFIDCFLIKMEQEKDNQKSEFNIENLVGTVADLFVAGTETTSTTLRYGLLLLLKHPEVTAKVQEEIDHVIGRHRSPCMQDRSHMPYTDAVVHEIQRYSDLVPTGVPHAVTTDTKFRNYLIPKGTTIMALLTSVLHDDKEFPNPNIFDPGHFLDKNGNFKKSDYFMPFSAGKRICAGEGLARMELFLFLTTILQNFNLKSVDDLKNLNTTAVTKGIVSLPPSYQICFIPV
# [13] = biological target: ATP-dependent translocase ABCB1 (Homo sapiens, UniProt P08183); assay: Inhibition of P-gp transporter (unknown origin)
# Sequence of ATP-dependent translocase ABCB1 (P08183 whole entry): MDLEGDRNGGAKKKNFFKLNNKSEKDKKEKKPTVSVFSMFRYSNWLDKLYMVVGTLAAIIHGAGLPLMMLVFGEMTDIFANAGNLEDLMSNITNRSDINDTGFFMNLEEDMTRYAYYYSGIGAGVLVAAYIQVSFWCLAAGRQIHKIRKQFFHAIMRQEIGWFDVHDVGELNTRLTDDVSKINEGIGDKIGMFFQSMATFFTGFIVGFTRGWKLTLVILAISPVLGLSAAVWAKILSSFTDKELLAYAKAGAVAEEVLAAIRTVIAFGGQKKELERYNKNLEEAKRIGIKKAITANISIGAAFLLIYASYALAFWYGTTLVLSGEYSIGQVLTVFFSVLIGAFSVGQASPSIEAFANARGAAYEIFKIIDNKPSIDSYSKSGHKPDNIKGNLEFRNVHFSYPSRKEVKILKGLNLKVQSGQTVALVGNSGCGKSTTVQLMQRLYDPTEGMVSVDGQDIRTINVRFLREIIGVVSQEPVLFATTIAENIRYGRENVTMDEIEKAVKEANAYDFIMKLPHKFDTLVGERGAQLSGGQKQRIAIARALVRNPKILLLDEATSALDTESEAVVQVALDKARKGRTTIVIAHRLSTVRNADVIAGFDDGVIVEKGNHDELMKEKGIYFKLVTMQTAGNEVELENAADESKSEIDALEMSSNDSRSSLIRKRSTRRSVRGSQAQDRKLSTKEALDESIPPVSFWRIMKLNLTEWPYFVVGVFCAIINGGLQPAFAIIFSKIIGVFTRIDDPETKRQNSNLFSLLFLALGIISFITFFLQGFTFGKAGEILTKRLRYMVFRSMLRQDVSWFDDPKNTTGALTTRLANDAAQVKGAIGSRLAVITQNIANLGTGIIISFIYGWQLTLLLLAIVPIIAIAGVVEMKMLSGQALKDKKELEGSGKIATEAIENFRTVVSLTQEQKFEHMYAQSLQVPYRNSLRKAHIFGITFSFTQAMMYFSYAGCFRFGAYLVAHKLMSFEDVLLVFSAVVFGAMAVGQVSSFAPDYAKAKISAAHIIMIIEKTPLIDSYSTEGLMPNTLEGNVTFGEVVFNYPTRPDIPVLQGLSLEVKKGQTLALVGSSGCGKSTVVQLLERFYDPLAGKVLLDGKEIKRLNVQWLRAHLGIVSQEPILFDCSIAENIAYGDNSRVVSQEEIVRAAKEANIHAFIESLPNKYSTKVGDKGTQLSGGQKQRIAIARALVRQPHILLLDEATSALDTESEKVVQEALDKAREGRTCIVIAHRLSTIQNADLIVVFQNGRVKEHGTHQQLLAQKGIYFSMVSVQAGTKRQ
# sodium channel = assay: Inhibition of sodium channel (unknown origin) at 4 Hz at 10 uM by patch clamp assay relative to control; assay type: toxicity; conditions: human
# L-type calcium channel = assay: Inhibition of L-type calcium channel (unknown origin) at 10 uM by patch clamp assay relative to control; assay type: toxicity; conditions: human
# Salmonella typhimurium [14] = assay: Mutagenicity in Salmonella typhimurium TA98 at 5000 ug/plate in absence of S9 fraction by Ames test; assay type: toxicity, organism-based; conditions: salmonella enterica subsp. enterica serovar typhimurium; dose 5000 µg
# Salmonella typhimurium [15] = assay: Mutagenicity in Salmonella typhimurium TA1535 at 5000 ug/plate in presence of S9 fraction by Ames test; assay type: toxicity, organism-based; conditions: salmonella enterica subsp. enterica serovar typhimurium, dose 5000 µg
# Salmonella typhimurium [16] = assay: Mutagenicity in Salmonella typhimurium TA1535 at 5000 ug/plate in absence of S9 fraction by Ames test; assay type: toxicity, organism-based; conditions: salmonella enterica subsp. enterica serovar typhimurium; dose 5000 µg
# Salmonella typhimurium [17] = assay: Mutagenicity in Salmonella typhimurium TA1537 at 5000 ug/plate in absence of S9 fraction by Ames test; assay type: toxicity, organism-based; conditions: salmonella enterica subsp. enterica serovar typhimurium; dose 5000 µg
# Escherichia coli [18] = assay: Mutagenicity in Escherichia coli WP2 uvrA at 5000 ug/plate in presence of S9 fraction by Ames test; assay type: toxicity, organism-based; conditions: dose 5000 µg
# Escherichia coli [19] = assay: Mutagenicity in Escherichia coli WP2 uvrA at 5000 ug/plate in absence of S9 fraction by Ames test; assay type: toxicity, organism-based
# [20] = Phototoxicity in BALB/c mouse 3T3 fibroblasts; assay type: toxicity, cell-based
# Hexokinase-4 = biological target: T2, Hexokinase-4 (Mus musculus, UniProt P52792); assay: Activation of recombinant mouse full length liver glucokinase expressed in Escherichia coli incubated for 10 mins in presence of 12 mM glucose by plate reader analysis
# T2 sequence (P52792 whole entry): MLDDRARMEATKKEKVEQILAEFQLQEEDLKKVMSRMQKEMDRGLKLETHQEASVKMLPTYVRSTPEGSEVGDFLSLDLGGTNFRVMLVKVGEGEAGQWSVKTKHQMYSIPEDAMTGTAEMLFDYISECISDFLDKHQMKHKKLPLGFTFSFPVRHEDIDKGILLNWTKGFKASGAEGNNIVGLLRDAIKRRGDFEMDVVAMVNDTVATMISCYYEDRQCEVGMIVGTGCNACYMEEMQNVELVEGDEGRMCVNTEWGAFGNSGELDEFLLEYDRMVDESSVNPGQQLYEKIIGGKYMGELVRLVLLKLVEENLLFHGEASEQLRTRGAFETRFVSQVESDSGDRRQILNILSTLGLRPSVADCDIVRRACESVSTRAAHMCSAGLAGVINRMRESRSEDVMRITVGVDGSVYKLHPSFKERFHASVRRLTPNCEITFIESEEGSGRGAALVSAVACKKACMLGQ
# Mus musculus [21] = assay: Anti-hyperglycemic activity in C57BL/6J DIO mouse assessed as reduction in plasma glucose AUC at 1 umol/kg incubated for 120 mins by OGTT; assay type: functional; set-up: scale not given: the % may be the effect or the level left; conditions: dose 1 µM/Kg, 2 h, at 1 µmol/kg
# Mus musculus [22] = assay: Anti-hyperglycemic activity in C57BL/6J DIO mouse assessed as reduction in plasma glucose level at 3 umol/kg measured at 1 hr post dose on day 1 by OGTT; assay type: functional; set-up: scale not given: the % may be the effect or the level left; conditions: dose 3 µM/Kg, at 3 µmol/kg
# Mus musculus [23] = assay: Anti-hyperglycemic activity in C57BL/6J DIO mouse assessed as reduction in plasma glucose level at 30 umol/kg, po qd measured on day 14 by OGTT; assay type: functional; set-up: scale not given: the % may be the effect or the level left; conditions: dose 30 µM/Kg; time 24 hrs; at 30 µmol/kg
# Mus musculus [24] = assay: Anti-hyperglycemic activity in C57BL/6J DIO mouse assessed as reduction in plasma glucose AUC at 3 umol/kg, po measured after 120 mins by OGTT; assay type: functional; set-up: scale not given: the % may be the effect or the level left; conditions: dose 3 µM/Kg, 2 h, at 3 µmol/kg
# Mus musculus [25] = assay: Anti-hyperglycemic activity in C57BL/6J DIO mouse assessed as reduction in plasma glucose level at 30 umol/kg measured after 14 days; assay type: functional; set-up: scale not given: the % may be the effect or the level left; conditions: dose 30 µM/Kg; time 14 day; at 30 µmol/kg
# Mus musculus [26] = assay: Anti-hyperglycemic activity in C57BL/6J DIO mouse assessed as reduction in plasma glucose AUC at 3 umol/kg incubated for 120 mins by OGTT; assay type: functional; set-up: scale not given: the % may be the effect or the level left; conditions: dose 3 µM/Kg, 2 h, at 3 µmol/kg
# [27] = Aqueous solubility of the compound at pH 6.5 using crystaline form of sample; assay type: physicochemical
# [28] = Permeability of compound at pH >= 5.5 by PAMPA assay; assay type: ADME; conditions: read-out: permeability
compound,measurement,setting,value
CCOP(=O)(Cn1ccc(NC(=O)c2cc(Oc3cnc(C(=O)N4CCC4)cn3)cc(OC(C)C)c2)n1)OCC,AUC(0-t),[1],0.57 µM·h
same,Cmax,[2],13 µM
same,Cmax,[3],4.9 µM
same,Cmax,[4],0.38 µM
same,Tmax,[5],54 min
same,half-life,[6],54 min
same,Vd,[7],1.1 L/kg
same,bioavailability,[8],100%
same,bioavailability,[9],90%
same,bioavailability,[10],15%
same,AUC(0-t),[11],24.9 µM·h
same,AUC(0-t),[12],12.3 µM·h
same,IC50,Cytochrome P450 2C8,7.7 µM
same,IC50,[13],55 µM
same,inhibition at 10 µM,sodium channel,12%
same,inhibition at 10 µM,L-type calcium channel,13%
same,Activity,Salmonella typhimurium [14],Non-Toxic
same,Activity,Salmonella typhimurium [15],Non-Toxic
same,Activity,Salmonella typhimurium [16],Non-Toxic
same,Activity,Salmonella typhimurium [17],Non-Toxic
same,Activity,Escherichia coli [18],Non-Toxic
same,Activity,Escherichia coli [19],Non-Toxic
same,Activity,[20],Toxic
same,EC50,Hexokinase-4,0.032 µM
same,Activity,Mus musculus [21],-28%
same,Activity,Mus musculus [22],-32%
same,Activity,Mus musculus [23],-46%
same,Activity,Mus musculus [24],-31%
same,Activity,Mus musculus [25],-63%
same,Activity,Mus musculus [26],-50%
same,solubility,[27],10 µg/mL
same,Papp,[28],> 40 ×10⁻⁶ cm/s

# From ChEMBL document CHEMBL5046279, “Discovery of a Partial Glucokinase Activator Clinical Candidate: Diethyl ((3-(3-((5-(Azetidine-1-carbonyl)pyrazin-2-yl)oxy)-5-isopropoxybenzamido)-1H-pyrazol-1-yl)methyl)phosphonate (BMS-820132)” (J Med Chem, 2022)
